Laboratory results taken from ChEMBL document CHEMBL1138039, “Discovery and pharmacological evaluation of growth hormone secretagogue receptor antagonists” (J Med Chem, 2006).
Calls of active or inactive are those of the source. The rule behind the calls is not given here.

Legend:
[1] = target: T1, Growth hormone secretagogue receptor type 1 (Homo sapiens, UniProt Q92847); experiment: Activity at GHS receptor by calcium flux assay in CHO-K cells; type: functional, cell-based
[2] = target: T1, Growth hormone secretagogue receptor type 1; experiment: Inhibition of [125I]ghrelin binding to GHS receptor in CHO-K cells; type: cell-based
[3] = Ratio of drug level in brain against plasma in rat after 8 hrs; type: ADME, organism-based; details: read-out: BBR
Mus musculus [4] = experiment: Reduction of cumulative food intake in fasted DIO mouse at 30 mg/kg, ip after 4 hrs; type: functional, organism-based; parameters: dose 30 mg/kg
[5] = Ratio of drug level in brain against plasma in rat after 1 hr; type: ADME, organism-based; details: read-out: BBR
Mus musculus [6] = experiment: Reduction of cumulative food intake in fasted DIO mouse at 30 mg/kg, ip after 2 hrs; type: functional, organism-based; parameters: dose 30 mg/kg
Mus musculus [7] = experiment: Reduction of cumulative food intake in fasted DIO mouse at 30 mg/kg, ip after 24 hrs; type: functional, organism-based; parameters: dose 30 mg/kg
Dihydrofolate reductase = target: T2, Dihydrofolate reductase (Homo sapiens, UniProt P00374); experiment: Inhibition of human recombinant DHFR assessed as rate of depletion of NADPH
T2 sequence (P00374 whole entry): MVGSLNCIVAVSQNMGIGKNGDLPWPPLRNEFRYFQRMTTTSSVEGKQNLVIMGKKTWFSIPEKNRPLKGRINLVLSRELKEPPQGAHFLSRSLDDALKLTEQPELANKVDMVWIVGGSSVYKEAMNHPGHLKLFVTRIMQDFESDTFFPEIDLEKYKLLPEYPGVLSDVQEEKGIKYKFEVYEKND

Mus musculus [8] = experiment: Reduction of cumulative food intake in fasted DIO mouse at 100 mg/kg, po after 20 mins; type: functional; parameters: scale not given: the % may be the effect or the level left
Mus musculus [9] = experiment: Reduction of cumulative food intake in fasted DIO mouse at 30 mg/kg, po after 1 hr; type: functional; parameters: scale not given: the % may be the effect or the level left
Mus musculus [10] = experiment: Reduction of cumulative food intake in fasted DIO mouse at 100 mg/kg, po after 1 hr; type: functional; parameters: scale not given: the % may be the effect or the level left
[11] = AUC in orally dosed DIO mouse; type: ADME, organism-based; details: plasma, po
Mus musculus [12] = experiment: Ratio of drug level in brain against plasma in orally dosed DIO mouse; type: ADME, organism-based; details: po
Mus musculus [13] = experiment: Reduction of cumulative food intake in fasted DIO mouse at 30 mg/kg, po after 20 mins; type: functional; parameters: scale not given: the % may be the effect or the level left
[14] = Half life in DIO mouse; type: ADME, organism-based; details: in vivo
[15] = target: T3, Dihydrofolate reductase (Homo sapiens) (UniProt P00374); experiment: Inhibition of human recombinant DHFR assessed as rate of depletion of NADPH at 1 uM
T3 sequence (whole entry): T2 sequence (P00374 whole entry)

[16] = Bioavailability in rat; type: ADME, organism-based; details: in vivo
Rattus norvegicus [17] = experiment: Reduction of cumulative food intake in Sprague-Dawley rat at 50 mg/kg, po after 24 hrs; type: functional; parameters: scale not given: the % may be the effect or the level left
Mus musculus [18] = experiment: Change in lean body mass of C57BL/6J mouse at 50 mg/kg, po after 14 days; type: functional, organism-based; parameters: dose 50 mg/kg
[19] = AUC in orally dosed rat; type: ADME, organism-based; details: plasma, po
Mus musculus [20] = experiment: Decrease of food intake in C57BL/6J mouse at 50 mg/kg, po after 1 day; type: functional, organism-based; parameters: dose 50 mg/kg
Mus musculus [21] = experiment: Decrease of plasma insulin level in C57BL/6J mouse at 50 mg/kg, po after 14 days; type: functional, organism-based; parameters: dose 50 mg/kg
Rattus norvegicus [22] = experiment: Reduction of cumulative food intake in Sprague-Dawley rat at 50 mg/kg, po after 32 hrs; type: functional; parameters: scale not given: the % may be the effect or the level left
[23] = Half life in rat; type: ADME, organism-based; details: in vivo
[24] = Ratio of drug level in brain against plasma in rat after 4 hrs; type: ADME, organism-based; details: read-out: BBR
Mus musculus [25] = experiment: Decrease of body weight in C57BL/6J mouse at 50 mg/kg, po after 14 days; type: functional; parameters: scale not given: the % may be the effect or the level left
Mus musculus [26] = experiment: Decrease of epididymal fat pad weight in C57BL/6J mouse at 50 mg/kg, po after 14 days; type: functional; parameters: scale not given: the % may be the effect or the level left

T1 sequence (Q92847 whole entry): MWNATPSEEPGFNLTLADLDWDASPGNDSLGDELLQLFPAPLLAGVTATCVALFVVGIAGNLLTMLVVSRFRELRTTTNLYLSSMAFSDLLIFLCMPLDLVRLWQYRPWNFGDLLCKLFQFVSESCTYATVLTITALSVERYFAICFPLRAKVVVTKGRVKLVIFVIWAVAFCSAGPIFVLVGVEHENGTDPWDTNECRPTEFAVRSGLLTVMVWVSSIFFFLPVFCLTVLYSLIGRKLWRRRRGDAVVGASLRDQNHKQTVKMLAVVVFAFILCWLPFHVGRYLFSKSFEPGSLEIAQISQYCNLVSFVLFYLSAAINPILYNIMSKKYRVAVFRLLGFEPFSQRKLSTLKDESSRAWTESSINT

SMILES	IC50 [1]	IC50 [2]	IC50 (Dihydrofolate reductase)	other results
CC(C)N(C)C(=O)Nc1ccc(-c2c(N)nc(N)nc2COCc2ccccc2)cc1	> 10000 nM	–	–	–
CCC(=O)Nc1ccc(-c2c(N)nc(N)nc2COCc2ccccc2)cc1	> 10000 nM	221 nM	–	–
Nc1nc(N)c(-c2ccc(NCc3ccc(Cl)cc3)cc2)c(COCc2ccccc2)n1	–	–	–	Kp at 8 h [3]: 1.4; Activity (Mus musculus [4]): Active; Kp at 1 h [5]: 3.1; Activity (Mus musculus [6]): Active; Activity (Mus musculus [7]): Active
Nc1nc(N)c(-c2ccc(NC(=O)Cc3ccsc3Br)cc2)c(COCc2ccccc2)n1	137 nM	41 nM	> 10 µM	–
Nc1nc(N)c(-c2ccc(NC(=O)NCc3ccccc3)cc2)c(COCc2ccccc2)n1	34 nM	–	–	–
Nc1nc(N)c(-c2ccc(NC(=O)Nc3ccccc3)cc2)c(COCc2ccccc2)n1	88 nM	–	> 10 µM	–
Nc1nc(N)c(-c2ccc(NC(=O)C3CCCC3)cc2)c(COCc2ccccc2)n1	40 nM	18 nM	> 10 µM	–
CC(C)(C)NC(=O)Nc1ccc(-c2c(N)nc(N)nc2COCc2ccccc2)cc1	7 nM	–	> 100 µM	Activity (Mus musculus [8]): 40%; Activity (Mus musculus [9]): 60%; Activity (Mus musculus [10]): 60%; AUC [11]: 12300 ng·h/mL; BBR (Mus musculus [12]): Not Active; Activity (Mus musculus [13]): 40%; half-life [14]: 270 min
Nc1nc(N)c(-c2ccc(NC(=O)c3ccncc3)cc2)c(COCc2ccccc2)n1	> 10000 nM	3080 nM	–	–
Nc1nc(N)c(-c2ccc(NC(=O)CCc3ccccc3)cc2)c(COCc2ccccc2)n1	343 nM	47 nM	–	–
Nc1nc(N)c(-c2ccc(NC(=O)NCCc3ccccc3)cc2)c(COCc2ccccc2)n1	7 nM	–	> 10 µM	–
CCc1nc(N)nc(N)c1-c1ccc2c(c1)nc(C1CCCC1)n2Cc1ccc(S(C)(=O)=O)cc1	109 nM	8 nM	1.83 µM	–
CCc1nc(N)nc(N)c1-c1ccc(NCc2ccc(S(C)(=O)=O)cc2)cc1	19 nM	7 nM	< 0.01 µM	inhibition [15]: 99%
CCc1nc(N)nc(N)c1-c1ccc(NCc2ccc(Cl)cc2)cc1	–	–	–	bioavailability [16]: 75%
CC(NC(=O)Nc1ccc(-c2c(N)nc(N)nc2COCc2ccccc2)cc1)c1ccccc1 (configuration not stated)	10 nM	–	–	–
CC(C)NC(=O)Nc1ccc(-c2c(N)nc(N)nc2COCc2ccccc2)cc1	56 nM	–	> 10 µM	–
Nc1nc(N)c(-c2ccc(NC(=O)Cc3ccsc3)cc2)c(COCc2ccccc2)n1	382 nM	70 nM	–	–
Nc1nc(N)c(-c2ccc(NC(=O)c3ccsc3)cc2)c(COCc2ccccc2)n1	> 10000 nM	126 nM	–	–
CC(=O)Nc1ccc(-c2c(N)nc(N)nc2COCc2ccccc2)cc1	> 10000 nM	2270 nM	–	–
Nc1nc(N)c(-c2ccc(NC(=O)Cc3cccnc3)cc2)c(COCc2ccccc2)n1	> 10000 nM	> 1000 nM	–	–
Nc1nc(N)c(-c2ccc(NC(=O)C3CCCO3)cc2)c(COCc2ccccc2)n1 (configuration not stated)	> 10000 nM	391 nM	–	–
CCc1nc(N)nc(N)c1-c1ccc2c(c1)ncn2Cc1ccc(S(C)(=O)=O)cc1	11 nM	4 nM	–	inhibition [15]: 78%
CN(C(=O)C1CCCC1)c1ccc(-c2c(N)nc(N)nc2COCc2ccccc2)cc1	> 10000 nM	1670 nM	–	–
Nc1nc(N)c(-c2ccc(NC(=O)C3CC3)cc2)c(COCc2ccccc2)n1	188 nM	66 nM	28 µM	Kp at 8 h [3]: 0.97; Activity (Rattus norvegicus [17]): 9%; Activity (Mus musculus [18]): inactive; AUC [19]: 820 ng·h/mL; Kp at 1 h [5]: 0.26; Activity (Mus musculus [20]): Active; bioavailability [16]: 32%; Activity (Mus musculus [21]): Active; Activity (Rattus norvegicus [22]): 11%; half-life [23]: 144 min; Kp at 4 h [24]: 1.1; Activity (Mus musculus [25]): 5.4%; Activity (Mus musculus [26]): 20%
Nc1nc(N)c(-c2ccc(NC(=O)Cc3ccccc3)cc2)c(COCc2ccccc2)n1	408 nM	37 nM	> 10 µM	–
CC(C)CC(=O)Nc1ccc(-c2c(N)nc(N)nc2COCc2ccccc2)cc1	108 nM	72 nM	–	–
CCc1nc(N)nc(N)c1-c1ccc2c(c1)nc(-c1ccccc1)n2Cc1ccc(S(C)(=O)=O)cc1	249 nM	16 nM	2.3 µM	–
